Assay results as given in patent publication US20210101881A1 (Ancureall Pharmaceutical (Shanghai) Co., Ltd., priority 2018, published 2021).
Like-named read-outs stand apart in the source and are kept apart here.

Columns and labels:
[1] = target: T1, CDK9/CyclinK kinase (Homo sapiens, UniProt P50750); assay: CDK9 protein kinase activity, ADP-Glo CDK9/CyclinK kinase detection kit; type: biochemical; settings: read-out: IC50 of the compound for inhibiting CDK9 protein kinase activity, CDK9/CyclinK kinase
T1 construct: purchased Promega Corporation V4105
T1 sequence (P50750 whole entry): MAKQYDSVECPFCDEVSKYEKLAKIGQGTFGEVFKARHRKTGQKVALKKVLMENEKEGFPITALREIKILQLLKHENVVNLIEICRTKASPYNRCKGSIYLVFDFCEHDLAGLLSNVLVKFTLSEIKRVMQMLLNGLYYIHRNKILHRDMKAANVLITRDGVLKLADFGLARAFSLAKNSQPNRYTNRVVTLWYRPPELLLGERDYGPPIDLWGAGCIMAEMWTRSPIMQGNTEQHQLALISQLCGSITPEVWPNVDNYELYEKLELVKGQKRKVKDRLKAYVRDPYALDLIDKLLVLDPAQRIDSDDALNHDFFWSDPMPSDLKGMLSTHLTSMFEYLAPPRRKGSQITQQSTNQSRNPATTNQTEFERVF
T1 sequence (O75909 whole entry partner): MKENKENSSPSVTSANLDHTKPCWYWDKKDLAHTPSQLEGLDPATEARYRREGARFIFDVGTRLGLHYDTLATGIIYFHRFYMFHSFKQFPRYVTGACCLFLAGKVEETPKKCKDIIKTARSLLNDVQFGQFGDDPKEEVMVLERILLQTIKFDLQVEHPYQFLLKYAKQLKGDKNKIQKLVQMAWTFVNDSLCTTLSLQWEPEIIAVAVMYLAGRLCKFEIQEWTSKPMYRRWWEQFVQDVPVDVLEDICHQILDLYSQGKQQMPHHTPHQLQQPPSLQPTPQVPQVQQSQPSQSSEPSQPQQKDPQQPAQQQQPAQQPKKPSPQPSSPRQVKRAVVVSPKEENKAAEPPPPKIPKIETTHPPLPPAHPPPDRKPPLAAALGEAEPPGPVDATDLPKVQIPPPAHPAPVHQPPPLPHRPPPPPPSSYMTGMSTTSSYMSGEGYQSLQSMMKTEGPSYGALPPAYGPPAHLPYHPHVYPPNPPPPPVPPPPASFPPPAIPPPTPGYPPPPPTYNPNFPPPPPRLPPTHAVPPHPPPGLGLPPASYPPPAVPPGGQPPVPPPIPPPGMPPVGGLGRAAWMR
Procedure: Measurement of CDK9 Protein Kinase Activity
The present compound was dissolved in DMSO (Sigma Aldrich), and the initial concentration of the compound was 1000 nM. A two-fold serial dilution was carried out. The specific operation of CDK9 kinase activity determination was carried out according to the ADP-Go™ CDK9/CyclinK kinase detection experimental procedure. […] Each test sample was tested in duplicate, and the test was repeated once. The inhibitory activity (IC50) of the compound on CDK9 protein kinase was calculated from the dose-inhibition curve of the compound.

[2] = test system: MOLM13 cells; assay: Growth inhibition of CDK9-positive cell line MOLM13 in vitro (CCK8/MTT assay); type: cell-based, human; settings: Homo sapiens
[3] = MOLM-13, read-out: IC50 of the compound for inhibiting cell growth, MOLM13 cells
[4] = MOLM-13, MOLM13 cells, cultured 3 to 6 days, CCK8, read-out: IC50 of the compound for inhibiting cell growth, MOLM13 cells

Structure (SMILES)	IC50 [1] [nM]	IC50 [2, 4] [nM]	IC50 [2, 3] [nM]
Cc1cc(Nc2ncc(F)c(-n3cc(C(N)=O)c4ccccc43)n2)ccc1N1CCNCC1 [Compound 39, 1-[5-fluoro-2-(3-methyl-4-piperazin-1-yl-phenylamino)-pyrimidin-4-yl]-1H-indole-3-carboxamide]	1 to 10	–	< 1
Cc1cc(Nc2ncc(Cl)c(-n3cc(C(N)=O)c4ccccc43)n2)ccc1N1CCNCC1 [Compound 42, 1-[5-chloro-2-(3-methyl-4-piperazin-1-yl-phenylamino)-pyrimidin-4-yl]-1H-indole-3-carboxamide]	1 to 10	< 1	–
Cc1cc(Nc2ncc(F)c(-n3cc(C(N)=O)c4ccccc43)n2)ccc1N1CCN(C)CC1 [Compound 55, 1-{5-fluoro-2-[3-methyl-4-(4-methyl-piperazin-1-yl)-phenylamino]-pyrimidin-4-yl}-1H-indole-3-carboxamide]	1 to 10	< 1	–
Cc1cc(Nc2ncc(F)c(-n3cc(C(N)=O)c4ccccc43)n2)ccc1N(C)CCN(C)C [Compound 88, 1-(2-{4-[(2-dimethylamino-ethyl)-methyl-amino]-3-methyl-phenylamino}-5-fluoro-pyrimidin-4-yl)-1H-indole-3-carboxamide]	10 to 100	< 1	–
CN1CCN(c2cccc(Nc3ncc(F)c(-n4cc(C(N)=O)c5ccccc54)n3)c2)CC1 [Compound 115, 1-{5-fluoro-2-[3-(4-methyl-piperazin-1-yl)-phenylamino]-pyrimidin-4-yl}-1H-indole-3-carboxamide]	< 1	–	< 1
NC(=O)c1cn(-c2nc(Nc3cccc(-n4cccn4)c3)ncc2F)c2ccccc12 [Compound 153, 1-[5-fluoro-2-(3-pyrazol-1-yl-phenylamino)-pyrimidin-4-yl]-1H-indole-3-carboxamide]	–	100 to 1000	–
NC(=O)c1cn(-c2nc(Nc3cccc(N4CCN(CC5CO5)CC4)c3)ncc2F)c2ccccc12 (centres unmarked) [Compound 156, 1-{5-fluoro-2-[3-(4-oxiranylmethyl-piperazin-1-yl)-phenylamino]-pyrimidin-4-yl}-1H-indole-3-carboxamide]	–	10 to 100	–
NC(=O)c1cn(-c2nc(Nc3cccc(N4CCN(CC5CCOCC5)CC4)c3)ncc2F)c2ccccc12 [Compound 157, 1-(5-fluoro-2-{3-[4-(tetrahydro-pyran-4-ylmethyl)-piperazin-1-yl]-phenylamino}-pyrimidin-4-yl)-1H-indole-3-carboxamide]	–	10 to 100	–
NC(=O)c1cn(-c2nc(Nc3cccc(N4CCN(C(=O)C5CCCO5)CC4)c3)ncc2F)c2ccccc12 (centres unmarked) [Compound 158, 1-(5-fluoro-2-{3-[4-(tetrahydro-furan-2-carbonyl)-piperazin-1-yl]-phenylamino}-pyrimidin-4-yl)-1H-indole-3-carboxamide]	–	10 to 100	–
CCN1CCN(c2cccc(Nc3ncc(F)c(-n4cc(C(N)=O)c5cc(N)ccc54)n3)c2)CC1 [Compound 162, 5-amino-1-{2-[3-(4-ethyl-piperazin-1-yl)-phenylamino]-5-fluoro-pyrimidin-4-yl}-1H-indole-3-carboxamide]	–	1 to 10	–
CCN1CCN(c2cccc(Nc3ncc(F)c(-n4cc(C(N)=O)c5cc(O)ccc54)n3)c2)CC1 [Compound 163, 1-{2-[3-(4-ethyl-piperazin-1-yl)-phenylamino]-5-fluoro-pyrimidin-4-yl}-5-hydroxy-1H-indole-3-carboxamide]	< 1	< 1	–
NC(=O)c1cn(-c2nc(Nc3cccc(N4CCN(C(=O)C5CCOCC5)CC4)c3)ncc2F)c2ccccc12 [Compound 166, 1-(5-Fluoro-2-{3-[4-(tetrahydro-pyran-4-carbonyl)-piperazin-1-yl]-phenylamino}-pyrimidin-4-yl)-1H-indole-3-carboxamide]	–	10 to 100	–
NC(=O)c1cn(-c2nc(Nc3cccc(N4CCN(C(=O)C5CCOC5)CC4)c3)ncc2F)c2ccccc12 (centres unmarked) [Compound 170, 1-(5-fluoro-2-{3-[4-(tetrahydro-furan-3-carbonyl)-piperazin-1-yl]-phenylamino}-pyrimidin-4-yl)-1H-indole-3-carboxamide]	–	1 to 10	–

More lines, main results first:

IC50 [1] [nM]	IC50 [2, 4] [nM]	Structure (SMILES)	IC50 [2, 3] [nM]
1 to 10	< 1	Cc1cc(Nc2ncc(Cl)c(-n3cc(C(N)=O)c4ccccc43)n2)ccc1N1CCN(C)CC1 [Compound 56, 1-{5-chloro-2-[3-methyl-4-(4-methyl-piperazin-1-yl)-phenylamino]-pyrimidin-4-yl}-1H-indole-3-carboxamide]	–
10 to 100	< 1	Cc1cc(Nc2ncc(Cl)c(-n3cc(C(N)=O)c4ccccc43)n2)ccc1N(C)CCN(C)C [Compound 89, 1-(5-chloro-2-{4-[(2-dimethylamino-ethyl)-methyl-amino]-3-methyl-phenylamino}-pyrimidin-4-yl)-1H-indole-3-carboxamide]	–
–	100 to 1000	Cc1cnn(-c2cccc(Nc3ncc(F)c(-n4cc(C(N)=O)c5ccccc54)n3)c2)c1 [Compound 154, 1-{5-fluoro-2-[3-(4-methyl-pyrazol-1-yl)-phenylamino]-pyrimidin-4-yl}-1H-indole-3-carboxamide]	–
–	1 to 10	CC(O)CN1CCN(c2cccc(Nc3ncc(F)c(-n4cc(C(N)=O)c5ccccc54)n3)c2)CC1 (centres unmarked) [Compound 155, 1-(5-fluoro-2-{3-[4-(2-hydroxy-propyl)-piperazin-1-yl]-phenylamino}-pyrimidin-4-yl)-1H-indole-3-carboxamide]	–
–	1 to 10	COc1ccc2c(c1)c(C(N)=O)cn2-c1nc(Nc2cccc(N3CCN(C(C)C)CC3)c2)ncc1F [Compound 159, 1-{5-fluoro-2-[3-(4-isopropyl-piperazin-1-yl)-phenylamino]-pyrimidin-4-yl}-5-methoxy-1H-indole-3-carboxamide]	–
–	10 to 100	NC(=O)c1cn(-c2nc(Nc3cccc(N4CCN(CC5CCCO5)CC4)c3)ncc2F)c2ccccc12 (centres unmarked) [Compound 160, 1-(5-fluoro-2-{3-[4-(tetrahydro-furan-2-ylmethyl)-piperazin-1-yl]-phenylamino}-pyrimidin-4-yl)-1H-indole-3-carboxamide]	–
–	1 to 10	CCN1CCN(c2cccc(Nc3ncc(F)c(-n4cc(C(N)=O)c5cc(OCCOC)ccc54)n3)c2)CC1 [Compound 164, 1-{2-[3-(4-ethyl-piperazin-1-yl)-phenylamino]-5-fluoro-pyrimidin-4-yl}-5-(2-methoxy-ethoxy)-1H-indole-3-carboxamide]	–
–	10 to 100	CC(=O)N1CCN(c2cccc(Nc3ncc(F)c(-n4cc(C(N)=O)c5ccccc54)n3)c2)CC1 [Compound 165, 1-{2-[3-(4-acetyl-piperazin-1-yl)-phenylamino]-5-fluoro-pyrimidin-4-yl}-1H-indole-3-carboxamide]	–
< 1	< 1	NC(=O)c1cn(-c2nc(Nc3cccc(N4CCN(C(=O)N5CCOCC5)CC4)c3)ncc2F)c2ccccc12 [Compound 167, 1-(5-fluoro-2-{3-[4-(morpholin-4-carbonyl)-piperazin-1-yl]-phenylamino}-pyrimidin-4-yl)-1H-indole-3-carboxamide]	–
–	10 to 100	CCN1CCN(c2cccc(Nc3ncc(F)c(-n4cc(C(N)=O)c5cc(OCCN6CCOCC6)ccc54)n3)c2)CC1 [Compound 168, 1-{2-[3-(4-ethyl-piperazin-1-yl)-phenylamino]-5-fluoro-pyrimidin-4-yl}-5-(2-morpholin-4-yl-ethoxy)-1H-indole-3-carboxamide]	–
–	1 to 10	NC(=O)c1cn(-c2nc(Nc3cccc(N4CCN(C(=O)C5CCCN5)CC4)c3)ncc2F)c2ccccc12 (centres unmarked) [Compound 169, 1-(5-fluoro-2-{3-[4-(pyrrolidin-2-carbonyl)-1-piperazin-1-yl]-phenylamino}-pyrimidin-4-yl)-1H-indole-3-carboxamide]	–
–	10 to 100	NC(=O)c1cn(-c2nc(Nc3cccc(N4CCN(C(=O)C5CCCC5)CC4)c3)ncc2F)c2ccccc12 [Compound 171]	–
–	10 to 100	CNC(=O)N1CCN(c2cccc(Nc3ncc(F)c(-n4cc(C(N)=O)c5ccccc54)n3)c2)CC1 [Compound 172, 1-{5-fluoro-2-[3-(4-methylcarbamoyl-piperazin-1-yl)-phenylamino]-pyrimidin-4-yl}-1H-indole-3-carboxamide]	–
